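Values below derive from 48-hour exposures of cells grown in 96-well plates, with endpoints linearly interpolated between the two concentrations bracketing the appropriate inhibition level. TGI denotes the concentration required for complete inhibition of growth.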
Experiments:
Assay in all cases: DTP human tumour cell line panel, 48 h
[1] = system: SN12C renal
[2] = system: M19-MEL melanoma
[3] = system: U251 CNS
[4] = system: NCI-H23 lung
[5] = system: KM12 colon
[6] = system: MOLT-4 leukemia
[7] = system: KM20L2 colon
[8] = system: K-562 leukemia
[9] = system: SK-MEL-28 melanoma
[10] = system: NCI-H460 lung
[11] = system: SF-268 CNS
[12] = system: DLD-1 colon
[13] = system: LOX IMVI melanoma
[14] = system: RXF 393 renal
[15] = system: MALME-3M melanoma
[16] = system: OVCAR-5 ovarian
[17] = system: OVCAR-4 ovarian
[18] = system: SK-OV-3 ovarian
[19] = system: SF-539 CNS
[20] = system: CAKI-1 renal
[21] = system: SK-MEL-5 melanoma
[22] = system: UACC-257 melanoma
[23] = system: SK-MEL-2 melanoma
[24] = system: DMS 114 small cell lung
[25] = system: CCRF-CEM leukemia
[26] = system: SNB-78 CNS
[27] = system: EKVX NSCLC
[28] = system: RPMI-8226 leukemia
[29] = system: COLO 205 colon
[30] = system: OVCAR-8 ovarian
[31] = system: LXFL 529 NSCLC
[32] = system: NCI-H522 lung
[33] = system: NCI-H226 lung
[34] = system: OVCAR-3 ovarian
[35] = system: HCT-116 colon
[36] = system: HT29 colon
[37] = system: A498 renal
[38] = system: SNB-19 CNS
[39] = system: HCC-2998 colon
[40] = system: SF-295 CNS
[41] = system: DMS 273 small cell lung
[42] = system: SNB-75 CNS
[43] = system: UACC-62 melanoma
[44] = system: HOP-62 NSCLC
[45] = system: HCT-15 colon
[46] = system: SW-620 colon
[47] = system: ACHN renal
[48] = system: 786-0 renal
[49] = system: M14 melanoma
[50] = system: HOP-18 NSCLC
[51] = system: TK-10 renal
[52] = system: UO-31 renal
[53] = system: A549 NSCLC
[54] = system: IGROV1 ovarian
[55] = system: XF 498 CNS
[56] = system: SR leukemia
[57] = system: HL-60(TB) leukemia
[58] = system: HOP-92 NSCLC

Compound: Cc1ccc(NC(=O)CSc2nnc(Cc3ccccc3)o2)cc1
- TGI [1]: > 100 µM
- TGI [2]: > 100 µM
- TGI [3]: > 100 µM
- TGI [4]: > 100 µM
- TGI [5]: > 100 µM
- TGI [6]: > 100 µM
- TGI [7]: > 100 µM
- TGI [8]: > 100 µM
- TGI [9]: > 100 µM
- TGI [10]: > 100 µM
- TGI [11]: > 100 µM
- TGI [12]: > 100 µM
- TGI [13]: > 100 µM
- TGI [14]: > 100 µM
- TGI [15]: > 100 µM
- TGI [16]: > 100 µM
- TGI [17]: > 100 µM
- TGI [18]: > 100 µM
- TGI [19]: > 100 µM
- TGI [20]: > 100 µM
- TGI [21]: > 100 µM
- TGI [22]: > 100 µM
- TGI [23]: > 100 µM
- TGI [24]: > 100 µM
- TGI [25]: > 100 µM
- TGI [26]: > 100 µM
- TGI [27]: > 100 µM
- TGI [28]: > 100 µM
- TGI [29]: > 100 µM
- TGI [30]: > 100 µM
- TGI [31]: > 100 µM
- TGI [32]: > 100 µM
- TGI [33]: > 100 µM
- TGI [34]: > 100 µM
- TGI [35]: > 100 µM
- TGI [36]: > 100 µM
- TGI [37]: > 100 µM
- TGI [38]: > 100 µM
- TGI [39]: > 100 µM
- TGI [40]: > 100 µM
- TGI [41]: > 100 µM
- TGI [42]: > 100 µM
- TGI [43]: > 100 µM
- TGI [44]: > 100 µM
- TGI [45]: > 100 µM
- TGI [46]: > 100 µM
- TGI [47]: > 100 µM
- TGI [48]: > 100 µM
- TGI [49]: > 100 µM
- TGI [50]: > 100 µM
- TGI [51]: > 100 µM
- TGI [52]: > 100 µM
- TGI [53]: > 100 µM
- TGI [54]: > 100 µM

Compound: Oc1cc(CN2CCOCCOCCOCCOCC2)c(O)cc1CN1CCOCCOCCOCCOCC1
- TGI [2]: 19.3 µM
- TGI [3]: > 56.8 µM
- TGI [4]: > 100 µM
- TGI [5]: > 100 µM
- TGI [6]: 52.6 µM
- TGI [7]: > 100 µM
- TGI [8]: > 75.2 µM
- TGI [9]: 54.7 µM
- TGI [10]: > 100 µM
- TGI [11]: 96.8 µM
- TGI [12]: 48.2 µM
- TGI [13]: 66.4 µM
- TGI [14]: 60.5 µM
- TGI [16]: 61.6 µM
- TGI [17]: 34 µM
- TGI [18]: > 100 µM
- TGI [19]: > 100 µM
- TGI [20]: 38.9 µM
- TGI [55]: 42.5 µM
- TGI [21]: > 100 µM
- TGI [22]: > 100 µM
- TGI [23]: > 93.4 µM
- TGI [25]: 44 µM
- TGI [26]: > 100 µM
- TGI [56]: 43.8 µM
- TGI [27]: > 100 µM
- TGI [28]: 63.8 µM
- TGI [29]: 39.6 µM
- TGI [30]: > 100 µM
- TGI [31]: 44.2 µM
- TGI [32]: 31.6 µM
- TGI [33]: > 85 µM
- TGI [34]: > 100 µM
- TGI [35]: 43.4 µM
- TGI [36]: > 73.3 µM
- TGI [37]: > 100 µM
- TGI [38]: > 100 µM
- TGI [39]: > 100 µM
- TGI [40]: > 100 µM
- TGI [42]: > 100 µM
- TGI [43]: > 72.2 µM
- TGI [44]: > 100 µM
- TGI [57]: 52.4 µM
- TGI [45]: > 67.4 µM
- TGI [46]: 53.1 µM
- TGI [47]: > 59.2 µM
- TGI [48]: 58.5 µM
- TGI [49]: 38.9 µM
- TGI [51]: > 96.2 µM
- TGI [52]: > 100 µM
- TGI [58]: 49.7 µM
- TGI [53]: > 100 µM
- TGI [54]: > 100 µM

— PubChem BioAssay (NCI)
